Measured values reported in patent US20170065564A1, “BIS-CYCLIC GUANIDINE COMPOUND COMPOSITIONS, METHODS OF USE AND TREATMENT THEREOF” (University of South Florida, priority 2014, published 2017).
≈ marks a conversion by molar mass, not a printed value.

Key:
[1] = system: Staphylococcus aureus; assay: MIC micro broth dilution assay; format: cell-based; set-up: key to stacked score activity, 100/MIC, S: stacked score = 100/MIC; conditions: for stacked score activity, 100/MIC, S: S. aureus
Summary of the method: (§1)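 Strains were multidrug-resistant clinical isolates grown in LB (Gram-negative) or TSB (Gram-positive), diluted 1:1,000 before compound addition.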

[2] = system: Enterobacter cloacae; assay: MIC micro broth dilution assay; format: cell-based; set-up: key to stacked score activity, 100/MIC, E: stacked score = 100/MIC; conditions: for stacked score activity, 100/MIC, E: E. cloacae
Summary of the method: as §1

[3] = system: Enterococcus faecium; assay: MIC micro broth dilution assay; format: cell-based; set-up: key to stacked score activity, 100/MIC, E: stacked score = 100/MIC; conditions: for stacked score activity, 100/MIC, E: E. faecium
Summary of the method: as §1

[4] = system: ESKAPE pathogens; assay: MIC micro broth dilution assay, statements and stacked scores over all ESKAPE pathogens; format: cell-based; conditions: for pathogens against which the compound showed activity at 4 ug/ml / pathogens against which the compound showed activity at 5 ug/ml / pathogens against which the compound showed activity at 10 ug/ml / pathogens against which the compound showed activity at 25 ug/ml: letters E,S,K,A,P,E = ESKAPE pathogens, — = none
Summary of the method: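 Overnight cultures of multidrug-resistant clinical isolates, diluted 1 in 1,000 (Gram-positives in TSB, Gram-negatives in LB), were exposed to decreasing compound concentrations in DMF (≤2.0%) at 37° C. MIC was read visually as no turbidity after 24 hours, in triplicate. Broad-spectrum activity was ranked by stacked scores.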

[5] = system: human A549 cells; assay: Cytotoxicity assay (MTT); format: cell-based; conditions: for IC50: MTT, 48 hours
Protocol: Cytotoxicity assays were performed using human A549 cells (adenocarcinomic human alveolar epithelial cells), as described by us previously.^44 Briefly, cells were cultured in F-12K Nutrient mixture (Kaighn's Modification) media containing L-glutamine, supplemented with 10% fetal bovine serum and 1% penicillin-streptomycin for 3 days at 37° and 5% CO2. Cells were then diluted to 1.0×10^5 ml^−1 using F-12K supplemented media, and added to 96 well tissue culture plates at a volume of 100 μl. Plates were incubated for 24 hours at 37° C. and 5% CO2, allowing the cells to adhere to the plastic. […] Plates were then incubated for 48 hours at 37° C. and 5% CO2. After 48 hours the media was removed, and new media added containing MTT (3-(4, 5-dimethylthiazol-2-yl)-2, 5-diphenyltetrazolium bromide), followed by incubation for four hours at 37° C. and 5% CO2. After 4 h, 50 μl of media was removed, replaced with DMSO and incubated for ten minutes at 37° C. in order to solubilize any formazan produced. A Biotek plate reader was used to measure the absorbance of formazan production at […], and IC50 values were determined for each of the five compounds. Front runners were solvated in 45% w/v (2-hydroxypropyl)-β-cyclodextrin in water for these studies; which was also used alone as a negative control. IC50 values were determined for each compound by comparison to vehicle only controls, to assess toxicity to human cells.

[6] = system: S. aureus; assay: Resistance serial passage assay; format: cell-based, Staphylococcus aureus; conditions: 8 passages, concentration doubled each day
Protocol: ESKAPE pathogens were grown overnight in liquid media at 37° C. These cultures were then diluted 1:100 in fresh media, and seeded into a 96-well plate. Lead bis-cyclic guanidines or control agents were added to respective wells at half MIC concentrations. Plates were then incubated for 24 hours at 37° C., with bacteria removed from these cultures on the following day, to inoculate fresh media (1:100 dilution) containing compounds at a 2-fold higher concentrations. These were then grown overnight, and the procedure repeated for a total of eight days. […] Each experiment was performed in triplicate, yielding identical results.

[7] = system: Staphylococcus aureus (USA300 strain FPR3757); assay: Murine model of lethal peritonitis; format: in vivo, mice; conditions: 2× MIC, I.M., 1 h post-infection, six mice per group
Protocol: Using MRSA as a representative ESKAPE organism, we infected mice with 1×10^8 bacterial cells in 5% mucin via intraperitoneal injection. At 1 h post-infection, mice were then I.V. injected with either vancomycin (positive control), or I.M. with our front runner compounds.
Six mice per group were injected with 1×10^8 CFU ml^−1 of Staphylococcus aureus (USA300 strain FPR3757) in PBS containing 5% mucin. […] Mice were monitored twice daily for five days to assess mortality. The clinical endpoint of this study was when the mice reached a pre-moribund state. Characteristics of pre-moribund state include: hunched posture, rapid, shallow and/or labored breathing, ruffled fur, lethargy, failure to respond to stimuli, soiled anogenital area, paralysis, paresis, head tilt, circling, vocalizations, non-purposeful movements and/or were unable to eat or drink. Those mice reaching this state prior to the completion of the 5 day infection period were euthanized. The number of mice surviving between control and treatment groups was compared and analyzed for statistical significance using a log rank test.

[8] = panel of E. cloacae clinical isolates

Compound: CCCCCCCN1C(=N)N(CCCC[C@H]2CNC(=N)N2CCCCC2CCCCC2)C[C@@H]1CC1CCCCC1 [Compound 16]
- stacked score activity, 100/MIC, S [1]: 20
- MIC ([1]; Staphylococcus aureus, S. aureus isolate 542): 2 µM (≈ 1.11 µg/mL)
- MIC ([1]; Staphylococcus aureus, S. aureus isolate 626): 2 µM (≈ 1.11 µg/mL)
- MIC ([1]; Staphylococcus aureus, S. aureus isolate 635): 2 µM (≈ 1.11 µg/mL)
- MIC ([1]; Staphylococcus aureus, S. aureus isolate 648): 2 µM (≈ 1.11 µg/mL)
- MIC ([1]; Staphylococcus aureus, S. aureus isolate 690): 2 µM (≈ 1.11 µg/mL)
- MIC ([1]; Staphylococcus aureus, S. aureus isolate 693): 2 µM (≈ 1.11 µg/mL)
- MIC ([1]; Staphylococcus aureus, S. aureus isolate 715): 2 µM (≈ 1.11 µg/mL)
- MIC ([1]; Staphylococcus aureus, S. aureus isolate 728): 2 µM (≈ 1.11 µg/mL)
- MIC ([1]; Staphylococcus aureus, S. aureus isolate 834): 2 µM (≈ 1.11 µg/mL)
- MIC ([1]; Staphylococcus aureus, S. aureus isolate 1043): 2 µM (≈ 1.11 µg/mL)
- MIC ([1]; Staphylococcus aureus, S. aureus isolate 1049): 2 µM (≈ 1.11 µg/mL)
- MIC ([1]; Staphylococcus aureus, purified compound, Table 1): 1.62 µM (≈ 0.902 µg/mL)
- stacked score activity, 100/MIC, E [2]: 20
- MIC ([2]; Enterobacter cloacae, E. cloacae isolate 1404): 2 µM (≈ 1.11 µg/mL)
- MIC ([2]; Enterobacter cloacae, E. cloacae isolate 1405): 2 µM (≈ 1.11 µg/mL)
- MIC ([2]; Enterobacter cloacae, E. cloacae isolate 1430): 2 µM (≈ 1.11 µg/mL)
- MIC ([2]; Enterobacter cloacae, E. cloacae isolate 1431): 2 µM (≈ 1.11 µg/mL)
- MIC ([2]; Enterobacter cloacae, E. cloacae isolate 1445): 2 µM (≈ 1.11 µg/mL)
- MIC ([2]; Enterobacter cloacae, E. cloacae isolate 1446): 5 µM (≈ 2.78 µg/mL)
- MIC ([2]; Enterobacter cloacae, E. cloacae isolate 1447): 2 µM (≈ 1.11 µg/mL)
- MIC ([2]; Enterobacter cloacae, E. cloacae isolate 1448): 2 µM (≈ 1.11 µg/mL)
- MIC ([2]; Enterobacter cloacae, E. cloacae isolate 1454): 2 µM (≈ 1.11 µg/mL)
- MIC ([2]; Enterobacter cloacae, E. cloacae isolate 1455): 2 µM (≈ 1.11 µg/mL)
- MIC ([2]; Enterobacter cloacae, purified compound, Table 1): 1.62 µM (≈ 0.902 µg/mL)
- concentration inhibiting 90% of isolates [2, 8]: 2 µM
- stacked score activity, 100/MIC, E [3]: 33
- MIC ([3]; Enterococcus faecium, E. faecium isolate 1406): 2 µM (≈ 1.11 µg/mL)
- MIC ([3]; Enterococcus faecium, E. faecium isolate 1407): 2 µM (≈ 1.11 µg/mL)
- MIC ([3]; Enterococcus faecium, E. faecium isolate 1432): 2 µM (≈ 1.11 µg/mL)
- MIC ([3]; Enterococcus faecium, E. faecium isolate 1438): 2 µM (≈ 1.11 µg/mL)
- MIC ([3]; Enterococcus faecium, E. faecium isolate 1439): 2 µM (≈ 1.11 µg/mL)
- MIC ([3]; Enterococcus faecium, E. faecium isolate 1443): 2 µM (≈ 1.11 µg/mL)
- MIC ([3]; Enterococcus faecium, E. faecium isolate 1444): 2 µM (≈ 1.11 µg/mL)
- MIC ([3]; Enterococcus faecium, E. faecium isolate 1449): 2 µM (≈ 1.11 µg/mL)
- MIC ([3]; Enterococcus faecium, E. faecium isolate 1450): 2 µM (≈ 1.11 µg/mL)
- MIC ([3]; Enterococcus faecium, E. faecium isolate 1451): 2 µM (≈ 1.11 µg/mL)
- MIC ([3]; Enterococcus faecium, purified compound, Table 1): 1.62 µM (≈ 0.902 µg/mL)
- pathogens against which the compound showed activity at 4 ug/ml [4]: EAP
- pathogens against which the compound showed activity at 5 ug/ml [4]: ESKAPE
- pathogens against which the compound showed activity at 10 ug/ml [4]: ESKAPE
- pathogens against which the compound showed activity at 25 ug/ml [4]: ESKAPE
- IC50 ([5]; Homo sapiens, A549): > 225 µM
- increase in MIC after serial passage [6]: 16 fold
- survival of infected mice over 5 day infection period [7]: only a single mouse succumbing to infection after the first day

Compound: CCCCCCCN1C(=N)N(CCCC[C@H]2CNC(=N)N2CCC23CC4CC(CC(C4)C2)C3)C[C@@H]1CCCC [Compound 19]
- stacked score activity, 100/MIC, S [1]: 33
- MIC ([1]; S. aureus isolate 542): 2.0 µM (≈ 1.08 µg/mL)
- MIC ([1]; S. aureus isolate 626): 2.0 µM (≈ 1.08 µg/mL)
- MIC ([1]; S. aureus isolate 635): 2.0 µM (≈ 1.08 µg/mL)
- MIC ([1]; S. aureus isolate 648): 2.0 µM (≈ 1.08 µg/mL)
- MIC ([1]; S. aureus isolate 690): 2.0 µM (≈ 1.08 µg/mL)
- MIC ([1]; S. aureus isolate 693): 2.0 µM (≈ 1.08 µg/mL)
- MIC ([1]; S. aureus isolate 715): 2.0 µM (≈ 1.08 µg/mL)
- MIC ([1]; S. aureus isolate 728): 2.0 µM (≈ 1.08 µg/mL)
- MIC ([1]; S. aureus isolate 834): 2.0 µM (≈ 1.08 µg/mL)
- MIC ([1]; S. aureus isolate 1043): 2.0 µM (≈ 1.08 µg/mL)
- MIC ([1]; S. aureus isolate 1049): 2.0 µM (≈ 1.08 µg/mL)
- MIC ([1]; purified compound, Table 1): 1.66 µM (≈ 0.898 µg/mL)
- stacked score activity, 100/MIC, E [2]: 20
- MIC ([2]; E. cloacae isolate 1404): 2.0 µM (≈ 1.08 µg/mL)
- MIC ([2]; E. cloacae isolate 1405): 2.0 µM (≈ 1.08 µg/mL)
- MIC ([2]; E. cloacae isolate 1430): 3.0 µM (≈ 1.62 µg/mL)
- MIC ([2]; E. cloacae isolate 1431): 2.0 µM (≈ 1.08 µg/mL)
- MIC ([2]; E. cloacae isolate 1445): 3.0 µM (≈ 1.62 µg/mL)
- MIC ([2]; E. cloacae isolate 1446): 5.0 µM (≈ 2.7 µg/mL)
- MIC ([2]; E. cloacae isolate 1447): 2.0 µM (≈ 1.08 µg/mL)
- MIC ([2]; E. cloacae isolate 1448): 2.0 µM (≈ 1.08 µg/mL)
- MIC ([2]; E. cloacae isolate 1454): 2.0 µM (≈ 1.08 µg/mL)
- MIC ([2]; E. cloacae isolate 1455): 2.0 µM (≈ 1.08 µg/mL)
- concentration inhibiting 70% of strains [2, 8]: 2 µM
- concentration inhibiting 90% of isolates [2, 8]: 5 µM
- MIC ([2]; purified compound, Table 1): 1.66 µM (≈ 0.898 µg/mL)
- stacked score activity, 100/MIC, E [3]: 33
- MIC ([3]; E. faecium isolate 1406): 2.0 µM (≈ 1.08 µg/mL)
- MIC ([3]; E. faecium isolate 1407): 2.0 µM (≈ 1.08 µg/mL)
- MIC ([3]; E. faecium isolate 1432): 2.0 µM (≈ 1.08 µg/mL)
- MIC ([3]; E. faecium isolate 1438): 2.0 µM (≈ 1.08 µg/mL)
- MIC ([3]; E. faecium isolate 1439): 2.0 µM (≈ 1.08 µg/mL)
- MIC ([3]; E. faecium isolate 1443): 2.0 µM (≈ 1.08 µg/mL)
- MIC ([3]; E. faecium isolate 1444): 2.0 µM (≈ 1.08 µg/mL)
- MIC ([3]; E. faecium isolate 1449): 2.0 µM (≈ 1.08 µg/mL)
- MIC ([3]; E. faecium isolate 1450): 2.0 µM (≈ 1.08 µg/mL)
- MIC ([3]; E. faecium isolate 1451): 2.0 µM (≈ 1.08 µg/mL)
- MIC ([3]; purified compound, Table 1): 1.66 µM (≈ 0.898 µg/mL)
- pathogens against which the compound showed activity at 4 ug/ml [4]: ESAP
- pathogens against which the compound showed activity at 5 ug/ml [4]: ESKAPE
- pathogens against which the compound showed activity at 10 ug/ml [4]: ESKAPE
- pathogens against which the compound showed activity at 25 ug/ml [4]: ESKAPE
- stacked score Total ([4]; stacked score over all ESKAPE pathogens (details in Table S4b)): 156
- Total stacked score ([4]; sum over all six ESKAPE pathogens): 156
- A549 cell recovery compared to vehicle only controls ([5]; 225 μM (highest concentration tested)): > 70%
- IC50 [5]: 146 µM
- A549 cell recovery compared to vehicle only controls ([5]; above 45 μM, at concentrations up to 225 μM): ≥ 26%
- A549 cell recovery compared to vehicle only controls ([5]; concentrations up to 45 μM): > 97%
- increase in MIC after serial passage [6]: 16 fold
- survival of infected mice over 5 day infection period [7]: only a single mouse succumbing to infection after the first day
